Results reported in ChEMBL document CHEMBL3886663, “COMPOUNDS AND USES” (2016).

biological target: T1, Leukotriene C4 synthase (Homo sapiens, UniProt Q16873); test: Recombinant human LTC4 synthase is expressed in […] and the purified enzyme is dissolved in 25 mM tris-buffer pH 7.8 supplemented with 0.1 mM glutathione (GSH) and stored at −80 °C. […] The buffer is used as background. Runs are performed in duplicates. […] The reaction is stopped after 1 min by addition of double the reaction volume of a stop solution (MeOH:H2O:acetic acid 70:30:1).
T1 sequence (Q16873 whole entry): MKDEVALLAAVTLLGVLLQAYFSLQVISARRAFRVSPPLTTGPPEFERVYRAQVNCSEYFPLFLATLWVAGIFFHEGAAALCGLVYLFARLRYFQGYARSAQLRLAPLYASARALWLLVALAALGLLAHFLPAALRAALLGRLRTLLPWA

SMILES | IC50 [nM]
COc1cc(N(Cc2cc(Cl)cc3c2OCO3)CC2CC2)cnc1C(=O)C1CC1C(=O)O (stereo not given) | 588
COc1cc(N(Cc2ccc(C(F)(F)F)cc2F)CC2CC2)cnc1C(=O)C1CC1C(=O)O (stereo not given) | 53
COc1cc(N(Cc2ccc(-c3ccccc3)cc2)CC2CC2)cnc1C(=O)C1CC1C(=O)O (stereo not given) | 2180
COc1cc(N(CC2CC2)c2cccc3c(C)ccnc23)cnc1C(=O)C1CC1C(=O)O (stereo not given) | 445
COc1cc(N(Cc2ccc(C)cc2)CC2CC2)cnc1C(=O)C1CC1C(=O)O (stereo not given) | 22
COc1cc(N(Cc2cc(F)cc3c2OCOC3)CC2CC2)cnc1C(=O)C1CC1C(=O)O (stereo not given) | 478
COc1cc(N(CC2CC2)c2ccc(C)c3ccccc23)ncc1C(=O)C1CC1C(=O)O (stereo not given) | 56

Next, values leading:

IC50 [nM] | SMILES
66 | COc1cc(N(Cc2cccc3ccccc23)CC2CC2)cnc1C(=O)C1CC1C(=O)O (stereo not given)
171 | COc1cc(N(Cc2cccc(C)c2)CC2CC2)cnc1C(=O)C1CC1C(=O)O (stereo not given)
800 | COc1cc(N(Cc2c(Cl)cccc2Cl)CC2CC2)cnc1C(=O)C1CC1C(=O)O (stereo not given)
